Experimental data published in patent US20060069132A1, “Azolecarboxamide herbicides” (priority 2004, published 2006).

Key:
redroot pigweed = test: Test A pre-/postemergence herbicide test; format: in vivo, Amaranthus retroflexus
Procedure, shortened: (§1)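 Plants are held in greenhouse about ten days after treatment, then compared with untreated controls and scored 0 (no effect) to 100 (complete control). Preemergence dosing is a directed soil spray on sown sandy loam; postemergence dosing is spray to runoff at 2–10 cm height.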

barnyardgrass [1] = test: Test B pre-/postemergence herbicide test; format: in vivo, Echinochloa crus-galli; settings: for Barnyardgrass plant response rating: postemergence, visual rating, scale 0 (no effect) to 100 (complete control)
Procedure, shortened: (§2)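 Flooded paddy rice and barnyardgrass were treated at the 2-leaf stage; upland plantings received compound either on sown seed or on 1- to 4-leaf seedlings. All were kept 13–15 days in a greenhouse and scored visually, 0–100, relative to untreated plants.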

pigweed = test: Test B pre-/postemergence herbicide test; format: in vivo, Amaranthus retroflexus; settings: for Pigweed plant response rating: postemergence, visual rating, scale 0 (no effect) to 100 (complete control)
Procedure, shortened: (§3)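 Pre: seeds sown, then sprayed. Post: 1–4-leaf plants (2–18 cm) sprayed at the same time. Paddy: flooded, treated at 2-leaf stage. Formulation: non-phytotoxic solvent with surfactant. Greenhouse 13–15 days; visual 0–100 score relative to controls.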

barnyardgrass [2] = test: Test A pre-/postemergence herbicide test; format: in vivo, Echinochloa crus-galli
Procedure, shortened: as §1

rice [3] = test: Test B flooded paddy test; format: in vivo, Oryza sativa; settings: 1000 g ai/ha, visual rating, scale 0 to 100 (0 no effect, 100 complete control), 13 to 15 days
Procedure, shortened: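 Plants grow to 1- to 4-leaf stage (2–18 cm) for postemergence spraying, or to 2-leaf stage for the paddy test. Formulated compound is applied. Greenhouse holding lasts 13–15 days. Response is scored visually relative to controls, 0 no effect to 100 complete control; a dash means no result.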

giant foxtail [4] = test: Test A pre-/postemergence herbicide test; format: in vivo, Setaria faberi
Procedure, shortened: as §1

giant foxtail [5] = test: Test B pre-/postemergence herbicide test; format: in vivo, Setaria faberi; settings: for Foxtail, Giant plant response rating: postemergence, visual rating, scale 0 (no effect) to 100 (complete control)
Procedure, shortened: as §3

corn = test: Test B pre-/postemergence herbicide test; format: in vivo, Zea mays; settings: for Corn plant response rating: postemergence, visual rating, scale 0 (no effect) to 100 (complete control)
Procedure, shortened: as §3

[6] = system: small flower umbrella sedge; test: Test B flooded paddy test; format: in vivo, Cyperus difformis; settings: 1000 g ai/ha, visual rating, scale 0 to 100 (0 no effect, 100 complete control), 13 to 15 days
Procedure, shortened: (§4)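 After treating 2-leaf paddy plants or 2–18 cm postemergence plants (1 to 4 leaves) with formulated chemical, researchers kept them in a greenhouse for 13–15 days. Effects were judged visually versus controls: 0 indicates none, 100 total control.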

wild oat = test: Test B postemergence herbicide test; format: in vivo, Avena fatua; settings: postemergence, visual rating, scale 0 (no effect) to 100 (complete control)
Procedure, shortened: as §4

rice [7] = test: Test B pre-/postemergence herbicide test; format: in vivo, Oryza sativa; settings: preemergence
Procedure, shortened: as §3

large crabgrass [8] = test: Test B pre-/postemergence herbicide test; format: in vivo, Digitaria sanguinalis; settings: for Crabgrass, Large plant response rating: postemergence, visual rating, scale 0 (no effect) to 100 (complete control)
Procedure, shortened: as §3

velvetleaf [9] = test: Test B pre-/postemergence herbicide test; format: in vivo, Abutilon theophrasti; settings: for Velvetleaf plant response rating: postemergence, visual rating, scale 0 (no effect) to 100 (complete control)
Procedure, shortened: as §3

morningglory [10] = test: Test B pre-/postemergence herbicide test; format: in vivo, Ipomoea coccinea; settings: for Morningglory plant response rating: postemergence, visual rating, scale 0 (no effect) to 100 (complete control)
Procedure, shortened: as §2

lambsquarters = test: Test B pre-/postemergence herbicide test; format: in vivo, Chenopodium album; settings: for Lambsquarters plant response rating: postemergence, visual rating, scale 0 (no effect) to 100 (complete control)
Procedure, shortened: as §3

barnyardgrass [11] = test: Test B flooded paddy test; format: in vivo, Echinochloa crus-galli; settings: 1000 g ai/ha, visual rating, scale 0 to 100 (0 no effect, 100 complete control), 13 to 15 days
Procedure, shortened: as §4

wheat = test: Test B postemergence herbicide test; format: in vivo, Triticum aestivum; set-up: key to Wheat plant response rating: 0 = no effect, 100 = complete control; settings: postemergence, visual rating, scale 0 (no effect) to 100 (complete control)
Procedure, shortened: as §4

large crabgrass [12] = test: Test A pre-/postemergence herbicide test; format: in vivo, Digitaria sanguinalis
Procedure, shortened: as §1

cocklebur = test: Test B pre-/postemergence herbicide test; format: in vivo, Xanthium strumarium; settings: for Cocklebur plant response rating: postemergence, visual rating, scale 0 (no effect) to 100 (complete control)
Procedure, shortened: as §2

Surinam grass = test: Test B pre-/postemergence herbicide test; format: in vivo, Urochloa decumbens; settings: for Surinam Grass plant response rating: postemergence, visual rating, scale 0 (no effect) to 100 (complete control)
Procedure, shortened: as §3

ducksalad = test: Test B flooded paddy test; format: in vivo, Heteranthera limosa; settings: 1000 g ai/ha, visual rating, scale 0 to 100 (0 no effect, 100 complete control), 13 to 15 days
Procedure, shortened: as §4

velvetleaf [13] = test: Test A pre-/postemergence herbicide test; format: in vivo, Abutilon theophrasti
Procedure, shortened: as §1

blackgrass = test: Test B postemergence herbicide test; format: in vivo, Alopecurus myosuroides; settings: postemergence, visual rating, scale 0 (no effect) to 100 (complete control)
Procedure, shortened: as §4

morningglory [14] = test: Test A pre-/postemergence herbicide test; format: in vivo, Ipomoea spp.
Procedure, shortened: as §1

[15] = Postemergence, 500 g ai/ha, 0 to 100 scale, 0 no effect, 100 complete control
[16] = Postemergence, 2000 g ai/ha, 0 to 100 scale, 0 no effect, 100 complete control
[17] = Preemergence, 2000 g ai/ha, visual rating, 0 to 100 scale (0 no effect, 100 complete control)
[18] = preemergence, 500 g ai/ha, visual injury, 0 to 100 scale (0 no effect, 100 complete control)
[19] = 125 g ai/ha, 0 = no effect, 100 = complete control, preemergence
[20] = 500 g ai/ha, visual rating 0-100, 0 no effect, 100 complete control, preemergence

Structure (SMILES): Cc1nc(C(C)(C)C)sc1C(=O)Nc1cccc(C(=O)NCCF)c1 [Compound 200]
- Pigweed plant response rating (redroot pigweed; [15]): 50
- Plant response rating, Pigweed (redroot pigweed; [16]): 60
- Pigweed plant response rating (redroot pigweed; [17]): 95
- Pigweed plant response rating (redroot pigweed; [18]): 80
- Barnyardgrass plant response rating (0 to 100 scale) (barnyardgrass [1]; [19]): 0
- Plant response rating, Barnyardgrass (barnyardgrass [1]; [20]): 20
- Barnyardgrass plant response rating (barnyardgrass [1]; 125 g ai/ha): 0
- Barnyardgrass plant response rating (barnyardgrass [1]; 500 g ai/ha): 10
- Pigweed plant response rating (0 to 100 scale) (pigweed; [19]): 10
- Plant response rating, Pigweed (pigweed; [20]): 90
- Pigweed plant response rating (pigweed; 125 g ai/ha): 10
- Pigweed plant response rating (pigweed; 500 g ai/ha): 40
- Barnyardgrass plant response rating (barnyardgrass [2]; [15]): 10
- Plant response rating, Barnyardgrass (barnyardgrass [2]; [16]): 35
- Barnyardgrass plant response rating (barnyardgrass [2]; [17]): 45
- Barnyardgrass plant response rating (barnyardgrass [2]; [18]): 35
- Rice plant response rating (rice [3]): 0
- Foxtail, Giant plant response rating (giant foxtail [4]; [15]): 0
- Plant response rating, Foxtail, Giant (giant foxtail [4]; [16]): 20
- Foxtail, Giant plant response rating (giant foxtail [4]; [17]): 60
- Foxtail, Giant plant response rating (giant foxtail [4]; [18]): 35
- Foxtail, Giant plant response rating (0 to 100 scale) (giant foxtail [5]; [19]): 0
- Plant response rating, Foxtail, Giant (giant foxtail [5]; [20]): 10
- Foxtail, Giant plant response rating (giant foxtail [5]; 125 g ai/ha): 10
- Foxtail, Giant plant response rating (giant foxtail [5]; 500 g ai/ha): 10
- Corn plant response rating (0 to 100 scale) (corn; [19]): 0
- Plant response rating, Corn (corn; [20]): 0
- Corn plant response rating (corn; 125 g ai/ha): 10
- Corn plant response rating (corn; 500 g ai/ha): 30
- Sedge, Umbrella plant response rating [6]: 50
- Oat, Wild plant response rating (wild oat; 125 g ai/ha): 0
- Oat, Wild plant response rating (wild oat; 500 g ai/ha): 10
- Rice plant response rating (0 to 100 scale) (rice [7]; 125 g ai/ha, 0 = no effect, 100 = complete control): 0
- Plant response rating, Rice (rice [7]; 500 g ai/ha, visual rating 0-100, 0 no effect, 100 complete control): 10
- Crabgrass, Large plant response rating (0 to 100 scale) (large crabgrass [8]; [19]): 50
- Plant response rating, Crabgrass, Large (large crabgrass [8]; [20]): 90
- Crabgrass, Large plant response rating (large crabgrass [8]; 125 g ai/ha): 0
- Crabgrass, Large plant response rating (large crabgrass [8]; 500 g ai/ha): 10
- Velvetleaf plant response rating (0 to 100 scale) (velvetleaf [9]; [19]): 0
- Plant response rating, Velvetleaf (velvetleaf [9]; [20]): 20
- Velvetleaf plant response rating (velvetleaf [9]; 125 g ai/ha): 10
- Velvetleaf plant response rating (velvetleaf [9]; 500 g ai/ha): 30
- Morningglory plant response rating (0 to 100 scale) (morningglory [10]; [19]): 0
- Plant response rating, Morningglory (morningglory [10]; [20]): 10
- Morningglory plant response rating (morningglory [10]; 125 g ai/ha): 0
- Morningglory plant response rating (morningglory [10]; 500 g ai/ha): 40
- Lambsquarters plant response rating (0 to 100 scale) (lambsquarters; [19]): 20
- Plant response rating, Lambsquarters (lambsquarters; [20]): 80
- Lambsquarters plant response rating (lambsquarters; 125 g ai/ha): 60
- Lambsquarters plant response rating (lambsquarters; 500 g ai/ha): 60
- Barnyardgrass plant response rating (barnyardgrass [11]): 0
- Wheat plant response rating (wheat; 125 g ai/ha): 0
- Wheat plant response rating (wheat; 500 g ai/ha): 0
- Crabgrass, Large plant response rating (large crabgrass [12]; [15]): 10
- Plant response rating, Crabgrass, Large (large crabgrass [12]; [16]): 25
- Crabgrass, Large plant response rating (large crabgrass [12]; [17]): 75
- Crabgrass, Large plant response rating (large crabgrass [12]; [18]): 70
- Cocklebur plant response rating (0 to 100 scale) (cocklebur; [19]): 0
- Plant response rating, Cocklebur (cocklebur; [20]): 0
- Cocklebur plant response rating (cocklebur; 125 g ai/ha): 10
- Cocklebur plant response rating (cocklebur; 500 g ai/ha): 20
- Surinam Grass plant response rating (0 to 100 scale) (Surinam grass; [19]): 0
- Plant response rating, Surinam Grass (Surinam grass; [20]): 10
- Surinam Grass plant response rating (Surinam grass; 125 g ai/ha): 10
- Surinam Grass plant response rating (Surinam grass; 500 g ai/ha): 20
- Ducksalad plant response rating (ducksalad): 0
- Velvetleaf plant response rating (velvetleaf [13]; [15]): 10
- Plant response rating, Velvetleaf (velvetleaf [13]; [16]): 10
- Velvetleaf plant response rating (velvetleaf [13]; [17]): 35
- Velvetleaf plant response rating (velvetleaf [13]; [18]): 20
- Blackgrass plant response rating (blackgrass; 125 g ai/ha): 0
- Blackgrass plant response rating (blackgrass; 500 g ai/ha): 10
- Morningglory plant response rating (morningglory [14]; [15]): 35
- Plant response rating, Morningglory (morningglory [14]; [16]): 45
- Morningglory plant response rating (morningglory [14]; [17]): 60
- Morningglory plant response rating (morningglory [14]; [18]): 15
